Bridge positions count the residues as written; N and C are the ends. Square brackets hold non-standard residues; d marks the D form. Peptide text beside a SMILES is read from it. * marks the point of attachment. ξ: configuration not given here. Ala(indol-4-yl) = N[C@@H](Cc1cccc2[nH]ccc12)C(=O)O; Phe(4-COOH) = N[C@@H](Cc1ccc(C(=O)O)cc1)C(=O)O; Bip = N[C@@H](Cc1ccc(-c2ccccc2)cc1)C(=O)O; Phe(3-CN) = N#Cc1cccc(C[C@H](N)C(=O)O)c1; Phe(3-Cl) = N[C@@H](Cc1cccc(Cl)c1)C(=O)O; Phe(4-CN) = N#Cc1ccc(C[C@H](N)C(=O)O)cc1; Phe(3-F) = N[C@@H](Cc1cccc(F)c1)C(=O)O; Phe(3-Me) = Cc1cccc(C[C@H](N)C(=O)O)c1; Ala(cPr) = N[C@@H](CC1CC1)C(=O)O; hArg = N=C(N)NCCCC[C@H](N)C(=O)O; 2Pal = N[C@@H](Cc1ccccn1)C(=O)O; 4Pal = N[C@@H](Cc1ccncc1)C(=O)O; 3Thi = N[C@@H](Cc1ccsc1)C(=O)O; Cha = N[C@@H](CC1CCCCC1)C(=O)O; Cit = NC(=O)NCCC[C@H](N)C(=O)O; Ile(3ξ) = CCC(C)[C@H](N)C(=O)O; AllylGly = C=CC[C@H](N)C(=O)O; Thr(3ξ) = CC(O)[C@H](N)C(=O)O; Carboxymethyl = O=C(O)C*; NMeA = CN[C@@H](C)C(=O)O; Dab = NCC[C@H](N)C(=O)O; ξC = NC(CS)C(=O)O
Biological target: T1, PE-labeled human PD-L1-Ig binding to Jurkat cell line over-expressing human PD-1 (Jurkat-PD-1) (Homo sapiens, UniProt Q15116)
T1 construct: expressed in transfected cells; host or cells: Jurkat
Assay: Jurkat-PD-1 Cell Binding High-Content Screening Assay (CBA): Method 1
Conditions: Jurkat-hPD-1 cells, PE-labeled PD-L1-Ig 20 nM final; read-out: Jurkat HPDL1 PD1 IC50 (uM) (Method 1)

T1 sequence (Q15116 25-288): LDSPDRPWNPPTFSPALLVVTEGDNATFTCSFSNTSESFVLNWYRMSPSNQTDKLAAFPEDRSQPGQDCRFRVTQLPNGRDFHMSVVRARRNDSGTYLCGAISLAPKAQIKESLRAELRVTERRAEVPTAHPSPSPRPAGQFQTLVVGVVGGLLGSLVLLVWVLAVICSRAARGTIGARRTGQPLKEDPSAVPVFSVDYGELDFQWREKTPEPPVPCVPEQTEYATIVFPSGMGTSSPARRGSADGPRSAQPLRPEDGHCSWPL

For CC(C)C[C@@H]1NC(=O)[C@H](Cc2c[nH]c3ccccc23)NC(=O)[C@H](CC(=O)O)NC(=O)[C@H](Cc2ccc(C#N)cc2)NC(=O)[C@H](CC(N)=O)NC(=O)CSC[C@@H](C(=O)NCC(N)=O)NC(=O)[C@H](CO)NC(=O)[C@H](C(C)C)NC(=O)[C@H](CC(C)C)NC(=O)[C@H](CC(N)=O)NC(=O)[C@@H](CC(C)C)NC(=O)[C@H](C)N(C)C(=O)[C@H](C(C)C)NC(=O)[C@H](Cc2ccc(-c3ccccc3)cc2)NC1=O [Compound 1527] ({CH2CO}-N[Phe(4-CN)]DWL[Bip]V[NMeA][dL]NLVSCG-NH2; thioether N-14), the IC50 was 0.01 µM.
With CC(C)C[C@H]1NC(=O)[C@H](C)N(C)C(=O)[C@H](CCC(=O)O)NC(=O)[C@H](Cc2ccc(-c3ccccc3)cc2)NC(=O)[C@H](C(C)C)NC(=O)[C@H](Cc2c[nH]c3ccccc23)NC(=O)[C@H](CC(=O)O)NC(=O)[C@H](Cc2ccc(O)cc2)NC(=O)[C@H](CCCCNC(=N)N)NC(=O)CSC[C@@H](C(=O)NCC(N)=O)NC(=O)[C@H](C(C)O)NC(=O)[C@H](C(C)C)NC(=O)[C@H](CC2CCCCC2)NC(=O)[C@H](CCN)NC1=O (stereo partly drawn) [Compound 2094] ({CH2CO}-[hArg]YDWV[Bip]E[NMeA][dL][Dab][Cha]V[Thr(3ξ)]CG-NH2; thioether N-14) the IC50 was 0.02 µM.
For CCC(C)[C@@H]1NC(=O)[C@H](Cc2ccc(-c3ccccc3)cc2)NC(=O)[C@H](C(C)C)NC(=O)[C@H](Cc2c[nH]c3ccccc23)NC(=O)[C@H](CC(=O)O)NC(=O)[C@H](Cc2ccc(O)cc2)NC(=O)[C@H](Cc2cccc3[nH]ccc23)NC(=O)CSC[C@@H](C(=O)N[C@@H](C)C(N)=O)NC(=O)[C@H](C(C)O)NC(=O)[C@H](C(C)C)NC(=O)[C@H](CC2CCCCC2)NC(=O)[C@H](CCN)NC(=O)[C@@H](CC(C)C)NC(=O)[C@H](C)N(C)C1=O (stereo partly drawn) [Compound 2053] ({CH2CO}-[Ala(indol-4-yl)]YDWV[Bip][Ile(3ξ)][NMeA][dL][Dab][Cha]V[Thr(3ξ)]CA-NH2; thioether N-14), the IC50 was 0.03 µM.
CC(C)C[C@H]1NC(=O)[C@H](C)N(C)C(=O)[C@H](CCCNC(=N)N)NC(=O)[C@H](Cc2ccc(-c3ccccc3)cc2)NC(=O)[C@H](C(C)C)NC(=O)[C@H](Cc2c[nH]c3ccccc23)NC(=O)[C@H](CC(=O)O)NC(=O)[C@H](Cc2ccc(O)cc2)NC(=O)[C@H](Cc2ccccc2)NC(=O)CSC[C@@H](C(=O)N[C@@H](C)C(N)=O)NC(=O)[C@H]([C@@H](C)O)NC(=O)[C@H](C(C)C)NC(=O)[C@H](CC2CC2)NC(=O)[C@H](CCCNC(=N)N)NC1=O [Compound 1111] ({CH2CO}-FYDWV[Bip]R[NMeA][dL]R[Ala(cPr)]VTCA-NH2; thioether N-14) gave an IC50 of 0.07 µM.
CCC(C)[C@@H]1NC(=O)[C@H](Cc2ccc(-c3ccccc3)cc2)NC(=O)[C@H](CC(C)C)NC(=O)[C@H](Cc2c[nH]c3ccccc23)NC(=O)[C@H](CC(=O)O)NC(=O)[C@H](Cc2ccc(C(=O)O)cc2)NC(=O)[C@H](Cc2ccc(OCC(=O)O)cc2)NC(=O)CSC[C@@H](C(=O)N[C@@H](CC(N)=O)C(N)=O)NC(=O)[C@H]([C@@H](C)O)NC(=O)[C@H](C(C)C)NC(=O)[C@H](CC2CCCCC2)NC(=O)[C@H](CCN)NC(=O)[C@@H](CC(C)C)NC(=O)[C@H](C)N(C)C1=O (stereo partly drawn) [Compound 1919] ({CH2CO}-Y(Carboxymethyl)[Phe(4-COOH)]DWL[Bip][Ile(3ξ)][NMeA][dL][Dab][Cha]VTCN-NH2; thioether N-14) gave an IC50 of 0.03 µM.
CC(C)C[C@@H]1NC(=O)[C@H](CCN)NC(=O)[C@@H](CC(C)C)NC(=O)[C@H](C)N(C)C(=O)[C@H](CCCNC(N)=O)NC(=O)[C@H](Cc2ccc(-c3ccccc3)cc2)NC(=O)[C@H](C(C)C)NC(=O)[C@H](Cc2c[nH]c3ccccc23)NC(=O)[C@H](CC(=O)O)NC(=O)[C@H](Cc2ccc(C#N)cc2)NC(=O)[C@H](CC(N)=O)NC(=O)CSC[C@@H](C(=O)N[C@@H](C)C(N)=O)NC(=O)[C@H]([C@@H](C)O)NC(=O)[C@H](C(C)C)NC1=O [Compound 1312] ({CH2CO}-N[Phe(4-CN)]DWV[Bip][Cit][NMeA][dL][Dab]LVTCA-NH2; thioether N-14) showed an IC50 of 0.05 µM.
In the case of CC(C)C[C@@H]1NC(=O)[C@H](CCN)NC(=O)[C@@H](CC(C)C)NC(=O)[C@H](C)N(C)C(=O)[C@H](CCCNC(=N)N)NC(=O)[C@H](Cc2ccc(-c3ccccc3)cc2)NC(=O)[C@H](C(C)C)NC(=O)[C@H](Cc2c[nH]c3ccccc23)NC(=O)[C@H](CC(=O)O)NC(=O)[C@H](Cc2cccc(C#N)c2)NC(=O)[C@H](CC(N)=O)NC(=O)CSC[C@@H](C(=O)N[C@@H](C)C(N)=O)NC(=O)[C@H]([C@@H](C)O)NC(=O)[C@H](C(C)C)NC1=O [Compound 1308] ({CH2CO}-N[Phe(3-CN)]DWV[Bip]R[NMeA][dL][Dab]LVTCA-NH2; thioether N-14), the IC50 is reported as 0.11 µM.
Work on CC(C)C[C@@H]1NC(=O)[C@H](CCN)NC(=O)[C@@H](CC(C)C)NC(=O)[C@H](C)N(C)C(=O)[C@H](CCCNC(N)=O)NC(=O)[C@H](Cc2ccc(-c3ccccc3)cc2)NC(=O)[C@H](C(C)C)NC(=O)[C@H](Cc2c[nH]c3ccccc23)NC(=O)[C@H](CC(=O)O)NC(=O)[C@H](Cc2cccc(Cl)c2)NC(=O)[C@H](CC(N)=O)NC(=O)CSC[C@@H](C(=O)N[C@@H](C)C(N)=O)NC(=O)[C@H]([C@@H](C)O)NC(=O)[C@H](C(C)C)NC1=O [Compound 1310] ({CH2CO}-N[Phe(3-Cl)]DWV[Bip][Cit][NMeA][dL][Dab]LVTCA-NH2; thioether N-14) yielded an IC50 of 0.11 µM.
Compound CC(C)C[C@@H]1NC(=O)[C@H](CCN)NC(=O)[C@@H](CC(C)C)NC(=O)[C@H](C)N(C)C(=O)[C@H](CCCNC(N)=O)NC(=O)[C@H](Cc2ccc(-c3ccccc3)cc2)NC(=O)[C@H](C(C)C)NC(=O)[C@H](Cc2c[nH]c3ccccc23)NC(=O)[C@H](CC(=O)O)NC(=O)[C@H](Cc2ccc(O)cc2)NC(=O)[C@H](Cc2ccccn2)NC(=O)CSC[C@@H](C(=O)N[C@@H](C)C(N)=O)NC(=O)[C@H]([C@@H](C)O)NC(=O)[C@H](C(C)C)NC1=O [Compound 1327] ({CH2CO}-[2Pal]YDWV[Bip][Cit][NMeA][dL][Dab]LVTCA-NH2; thioether N-14) has an IC50 of 0.08 µM.
For CC(C)C[C@@H]1NC(=O)[C@H](CCN)NC(=O)[C@@H](CC(C)C)NC(=O)[C@H](C)N(C)C(=O)[C@H](CCCNC(N)=O)NC(=O)[C@H](Cc2ccc(-c3ccccc3)cc2)NC(=O)[C@H](C(C)C)NC(=O)[C@H](Cc2c[nH]c3ccccc23)NC(=O)[C@H](CC(=O)O)NC(=O)[C@H](Cc2cccc(F)c2)NC(=O)[C@H](CC(N)=O)NC(=O)CSC[C@@H](C(=O)N[C@@H](C)C(N)=O)NC(=O)[C@H]([C@@H](C)O)NC(=O)[C@H](C(C)C)NC1=O [Compound 1315] ({CH2CO}-N[Phe(3-F)]DWV[Bip][Cit][NMeA][dL][Dab]LVTCA-NH2; thioether N-14), the IC50 was 0.06 µM.
Compound CCC(C)[C@@H]1NC(=O)[C@H](Cc2ccc(-c3ccccc3)cc2)NC(=O)[C@H](C(C)C)NC(=O)[C@H](Cc2cccc(C)c2)NC(=O)[C@H](CC(=O)O)NC(=O)[C@H](Cc2ccc(OCC(=O)O)cc2)NC(=O)[C@H](Cc2ccncc2)NC(=O)CSC[C@@H](C(=O)N[C@@H](CO)C(=O)O)NC(=O)[C@H](CO)NC(=O)[C@H](C(C)C)NC(=O)[C@H](CC2CCCCC2)NC(=O)[C@H](CCN)NC(=O)[C@@H](CC(C)C)NC(=O)[C@H](C)N(C)C1=O (stereo partly drawn) [Compound 2234] ({CH2CO}-[4Pal]Y(Carboxymethyl)D[Phe(3-Me)]V[Bip][Ile(3ξ)][NMeA][dL][Dab][Cha]VSCS-OH; thioether N-14) has an IC50 of 0.02 µM.
For C=CC[C@@H]1NC(=O)[C@H](Cc2cccc(C)c2)NC(=O)[C@H](CC(=O)O)NC(=O)[C@H](Cc2ccncc2)NC(=O)[C@H](Cc2ccc(OCC(=O)O)cc2)NC(=O)CSCC(C(=O)NCC(N)=O)NC(=O)[C@H](CC=C)NC(=O)[C@H](C(C)C)NC(=O)[C@H](CC(C)C)NC(=O)[C@H](CC(N)=O)NC(=O)[C@@H](CC(C)C)NC(=O)[C@H](C)N(C)C(=O)[C@H](C(C)C)NC(=O)[C@H](Cc2ccc(-c3ccccc3)cc2)NC1=O (stereo partly drawn) [Compound 1880] ({CH2CO}-Y(Carboxymethyl)[4Pal]D[Phe(3-Me)][AllylGly][Bip]V[NMeA][dL]NLV[AllylGly][ξC]G-NH2; thioether N-14), the IC50 was 0.05 µM.
For Cc1cccc(C[C@@H]2NC(=O)[C@H](CC(=O)O)NC(=O)[C@H](Cc3ccc(OCC(=O)O)cc3)NC(=O)[C@H](Cc3ccsc3)NC(=O)CSC[C@@H](C(=O)N[C@@H](CCN)C(N)=O)NC(=O)[C@H](C(C)O)NC(=O)[C@H](C(C)C)NC(=O)[C@H](CC3CCCCC3)NC(=O)[C@H](CCN)NC(=O)[C@@H](CC(C)C)NC(=O)[C@H](C)N(C)C(=O)[C@H](Cc3ccc(OCC(=O)O)cc3)NC(=O)[C@H](Cc3ccc(-c4ccccc4)cc3)NC(=O)[C@H](Cc3ccc(C(=O)O)cc3)NC2=O)c1 (stereo partly drawn) [Compound 2128] ({CH2CO}-[3Thi]Y(Carboxymethyl)D[Phe(3-Me)][Phe(4-COOH)][Bip]Y(Carboxymethyl)[NMeA][dL][Dab][Cha]V[Thr(3ξ)]C[Dab]-NH2; thioether N-14), the IC50 was 0.01 µM.
In the case of Cc1cccc(C[C@@H]2NC(=O)[C@H](CC(=O)O)NC(=O)[C@H](Cc3ccc(C(=O)O)cc3)NC(=O)[C@H](Cc3ccncc3)NC(=O)CSC[C@@H](C(N)=O)NC(=O)[C@H]([C@@H](C)O)NC(=O)[C@H](C(C)C)NC(=O)[C@H](CC(C)C)NC(=O)[C@H](CCN)NC(=O)[C@@H](CC(C)C)NC(=O)[C@H](C)N(C)C(=O)[C@H](CCCNC(N)=O)NC(=O)[C@H](Cc3ccc(-c4ccccc4)cc3)NC(=O)[C@H](C(C)C)NC2=O)c1 [Compound 1898] ({CH2CO}-[4Pal][Phe(4-COOH)]D[Phe(3-Me)]V[Bip][Cit][NMeA][dL][Dab]LVTC-NH2; thioether N-14), the IC50 is reported as 0.07 µM.
CC(C)C[C@@H]1NC(=O)[C@H](Cc2c[nH]c3ccccc23)NC(=O)[C@H](CC(=O)O)NC(=O)[C@H](Cc2ccc(O)cc2)NC(=O)[C@H](Cc2ccccc2)NC(=O)CSC[C@@H](C(=O)NCC(N)=O)NC(=O)[C@H]([C@@H](C)O)NC(=O)[C@H](C(C)C)NC(=O)[C@H](CC(C)C)NC(=O)[C@H](CCN)NC(=O)[C@@H](CC(C)C)NC(=O)[C@H](C)N(C)C(=O)[C@H](C(C)C)NC(=O)[C@H](Cc2ccc(-c3ccccc3)cc2)NC1=O [Compound 1469] ({CH2CO}-FYDWL[Bip]V[NMeA][dL][Dab]LVTCG-NH2; thioether N-14) was tested, and the IC50 was 0.01 µM.
